Common to all, as to experiment: NCI tumour cell line growth inhibition, 48 h
Test [1] relates to A498 renal.
The test system of test [2] is HOP-62 NSCLC.
For test [3], the system named is A549 NSCLC.
The test system of test [4] is OVCAR-4 ovarian.
Test [5] relates to EKVX NSCLC.
Test [6] has as its system LOX IMVI melanoma.
Test [7] has as its system HCC-2998 colon.
The test system of test [8] is OVCAR-3 ovarian.
Test [9] relates to NCI/ADR-RES ovarian.

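Where inhibition never reached the appropriate level, the endpoint shown equals the highest concentration tested. Otherwise, values were interpolated linearly from a five-concentration, 48-hour dose response in 96-well plates. GI50 marks 50% less growth. TGI is the concentration that stops growth completely.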

Consider `CCOC(=O)/C(O)=C(/c1n[nH]c(=O)c2ccccc12)[N+](=O)[O-]`, for which the TGI in test [1], in [2], in test [3], in test [4], in test [5] and in [6] was over 100 µM each time. For the same compound, the TGI in test [7] and in test [8] was over 100 µM throughout.
For the compound `COC(=O)C1=C(O)c2cc(OC)c(OC)c(OC)c2[C@H](c2cc(OC)c(OC)c(OC)c2)C1C(=O)OC` (some centres not stated), the TGI in [1], in [2], in test [3], in test [4], in test [5] and in test [6] was over 100 µM each time. Besides, the TGI in test [7] is 83.9 µM; in test [8], 58.4 µM.
On to `O=S(=O)(O)O.[NH-]C1CCCCC1[NH-].[Pt+2]` (configuration not stated), for which the GI50 in test [1] is 32.3 µM; in test [2], over 100 µM; in test [3], 80.4 µM; in test [4], 67.2 µM; in test [5], over 100 µM; in test [6], over 100 µM. Also, the GI50 in [7] and in test [8] was over 100 µM throughout. Also, the TGI in test [1], in [2], in test [3], in test [4], in [5] and in test [6] was over 100 µM throughout. Moreover, the TGI in [7] and in test [8] was over 100 µM each time.
On to `O=c1cccccc1NCCOCCNc1cccccc1=O`, for which the TGI in test [1], in test [2], in test [3], in [4], in test [5] and in test [6] was over 100 µM in each case. The TGI in test [7] and in test [8] was over 100 µM throughout.
Turning to `Cc1[nH]c2ccccc2c1C1Cc2ccccc2N1C(=O)/C=C/C=C/c1ccccc1` (configuration not stated), the TGI in [1], in test [2], in [3], in [4], in [5] and in test [6] was over 100 µM throughout. Moreover, the TGI in [7] and in test [8] was over 100 µM each time.
In the case of `O=S(=O)(/C=C/c1ccc(Cl)cc1Cl)Cc1ccccc1CS(=O)(=O)/C=C/c1ccc(Cl)cc1Cl`, the TGI in [1], in test [2], in test [3], in test [4], in [5] and in test [6] was over 100 µM each time. Besides, the TGI in test [7] and in [8] was over 100 µM in each case.
On to `CCOC(C)C(/C=N/NC(N)=S)=NNC(N)=S` (configuration not stated), for which the TGI in [1] is 85.2 µM; in test [2] it was over 100 µM; in [3], over 100 µM; in test [4] it was over 100 µM; in test [5] it was over 100 µM; in test [6] it was over 100 µM. Further, the TGI in test [7] is over 100 µM.
Take `Cc1cc(O)cc2oc(=O)c3c(O)cc(O)cc3c12`: the TGI is over 100 µM in [1]; 50.9 µM in test [2]; 86 µM in [3]; over 100 µM in [4]; 75.1 µM in [5]; 48.1 µM in test [6]. Moreover, the TGI in [7] came out at 40.8 µM; in [8], 58.4 µM.
`CS(=O)(=O)NNS(=O)(=O)c1cccc([N+](=O)[O-])c1`: the TGI in test [1], in test [2], in [3], in test [4], in [5] and in test [6] was over 100 µM throughout. In test [7], this compound had a TGI of over 100 µM.
As for `COC(=O)C1=C2CCC(=O)[C@@]2(C)C(OC(C)=O)C=CC1` (some centres not stated), the TGI in [1], in test [2], in [3], in [4], in test [5] and in [7] was over 100 µM throughout. This compound also showed a TGI in test [8] of over 100 µM.
On to `CCOC12OC3=C(CC1CC1=C(CCC1=O)O2)C(=O)CC3` (configuration not stated), for which the TGI in test [1], in [2], in [3], in test [4], in test [5] and in test [6] was over 100 µM throughout. The compound further returned a TGI in test [8] of over 100 µM.
For `COc1ccc(C(=O)C(c2ccc(OC)cc2)C2(O)C(=O)Nc3ccccc32)cc1` (configuration not stated), the TGI in test [3], in [5], in test [6] and in [8] was over 100 µM throughout.
Take `COc1ccc2c(c1)c(-c1ccc(-c3cn(S(=O)(=O)c4ccccc4)c4ccc(OC)cc34)s1)cn2S(=O)(=O)c1ccccc1`: the GI50 in test [1], in [9], in test [2], in [3], in [4] and in test [5] was over 100 µM in each case. For the same compound, the GI50 in test [6], in test [7] and in test [8] was over 100 µM each time. In addition, the TGI in test [1], in test [9], in test [2], in test [3], in test [4] and in test [5] was over 100 µM each time. Moreover, the TGI in test [6], in test [7] and in test [8] was over 100 µM in each case.
For `CN(C)CCNC(=O)c1cc2ccccc2c2nc3ccccc3nc12`, the TGI was 2.4 µM in test [1]; 5 µM in test [2]; over 44.4 µM in test [3]; 2.34 µM in [4]; 7.37 µM in test [5]; 1.88 µM in test [6]. Also, the results for the TGI in test [7] and in [8] were 3.92 µM and 6.35 µM, respectively.
